System: GRMD plasma proteins
Format: in vivo, dog
Conditions: EDG-5506 treatment to GRMD baseline; Increased in GRMD

With `O=c1ccc(-c2cnc(OCC(F)(F)F)nc2)nn1Cc1cncc(F)c1` [EDG-5506] the “Change from GRMD Baseline (fraction): Fibronectin Fragment 4 (FN1)” value was -0.0853 fraction, the “Change from GRMD Baseline (fraction): Follistatin (FST)” value was -0.1433 fraction and the “Change from GRMD Baseline (fraction): Fractalkine (CX3CL1)” value was -0.1153 fraction. The “Change from GRMD Baseline (fraction): Fructose-bisphosphate aldolase A (ALDOA)” value was 0.1605 fraction, the “Change from GRMD Baseline (fraction): G2/mitotic-specific cyclin-B1 (CCNB1)” value was -0.0054 fraction and the “Change from GRMD Baseline (fraction): Galectin-4 (LGALS4)” value was -0.0907 fraction. The “Change from GRMD Baseline (fraction): Galectin-7 (LGALS7)” value was -0.1308 fraction, the “Change from GRMD Baseline (fraction): Glucose-6-phosphate isomerase (GPI)” value was -0.4647 fraction and the “Change from GRMD Baseline (fraction): Glyceraldehyde-3-phosphate dehydrogenase (GAPDH)” value was -0.5078 fraction. For the same molecule, the “Change from GRMD Baseline (fraction): Glycogen synthase kinase-3 alpha/beta (GSK3A GSK3B)” value was -0.3338 fraction, the “Change from GRMD Baseline (fraction): Granulocyte-macrophage colony-stimulating factor (CSF2)” value was -0.2326 fraction and the “Change from GRMD Baseline (fraction): Growth factor receptor-bound protein 2 (GRB2)” value was -0.3399 fraction. The “Change from GRMD Baseline (fraction): Growth/differentiation factor 5 (GDF5)” value was -0.0403 fraction, the “Change from GRMD Baseline (fraction): Heat shock 70 kDa protein 1A (HSPA1A)” value was -0.2859 fraction and the “Change from GRMD Baseline (fraction): Heat shock cognate 71 kDa protein (HSPA8)” value was -0.3616 fraction. For the same molecule, the “Change from GRMD Baseline (fraction): Heat shock protein HSP 90-alpha/beta (HSP90AA1 HSP90AB1)” value was -0.1032 fraction, the “Change from GRMD Baseline (fraction): Heat shock protein HSP 90-beta (HSP90AB1)” value was -0.0167 fraction and the “Change from GRMD Baseline (fraction): Heat shock protein beta-1 (HSPB1)” value was -0.0454 fraction. The “Change from GRMD Baseline (fraction): Hepatoma-derived growth factor-related protein 2 (HDGFRP2)” value was -0.0887 fraction, the “Change from GRMD Baseline (fraction): Heterogeneous nuclear ribonucleoprotein A/B (HNRNPAB)” value was -0.2641 fraction and the “Change from GRMD Baseline (fraction): Heterogeneous nuclear ribonucleoprotein Q (SYNCRIP)” value was -0.2959 fraction. For the same molecule, the “Change from GRMD Baseline (fraction): Heterogeneous nuclear ribonucleoproteins A2/B1 (HNRNPA2B1)” value was -0.2792 fraction, the “Change from GRMD Baseline (fraction): Hexokinase-2 (HK2)” value was -0.2831 fraction and the “Change from GRMD Baseline (fraction): Histidine triad nucleotide-binding protein 1 (HINT1)” value was -0.1184 fraction. For the same molecule, the “Change from GRMD Baseline (fraction): Histone H1.2 (HIST1H1C)” value was -0.2004 fraction, the “Change from GRMD Baseline (fraction): Histone deacetylase 8 (HDAC8)” value was -0.1223 fraction and the “Change from GRMD Baseline (fraction): Homeodomain-interacting protein kinase 3 (HIPK3)” value was 0.4673 fraction. For the same molecule, the “Change from GRMD Baseline (fraction): Immunoglobulin superfamily containing leucine-rich repeat protein 2 (ISLR2)” value was 0.163 fraction, the “Change from GRMD Baseline (fraction): Inducible T-cell costimulator (ICOS)” value was -0.069 fraction and the “Change from GRMD Baseline (fraction): Inosine-5'-monophosphate dehydrogenase 2 (IMPDH2)” value was -0.2973 fraction. For the same molecule, the “Change from GRMD Baseline (fraction): Insulin-degrading enzyme (IDE)” value was -0.2351 fraction, the “Change from GRMD Baseline (fraction): Insulin-like growth factor-binding protein 3 (IGFBP3)” value was -0.1253 fraction and the “Change from GRMD Baseline (fraction): Intercellular adhesion molecule 5 (ICAM5)” value was 0.2028 fraction. The “Change from GRMD Baseline (fraction): Interferon alpha-10 (IFNA10)” value was 0.155 fraction, the “Change from GRMD Baseline (fraction): Interleukin-1 alpha (IL1A)” value was -0.061 fraction and the “Change from GRMD Baseline (fraction): Interleukin-1 receptor-like 2 (IL1RL2)” value was -0.0194 fraction. The “Change from GRMD Baseline (fraction): Interleukin-15 receptor subunit alpha (IL15RA)” value was -0.1087 fraction, the “Change from GRMD Baseline (fraction): Interleukin-17F (IL17F)” value was -0.0145 fraction and the “Change from GRMD Baseline (fraction): Interleukin-37 (IL37)” value was -0.0864 fraction. For the same molecule, the “Change from GRMD Baseline (fraction): Junctional adhesion molecule B (JAM2)” value was -0.0925 fraction, the “Change from GRMD Baseline (fraction): Junctional adhesion molecule C (JAM3)” value was -0.1846 fraction and the “Change from GRMD Baseline (fraction): Kallikrein-6 (KLK6)” value was -0.0597 fraction. The “Change from GRMD Baseline (fraction): Kallikrein-12 (KLK12)” value was 0.0192 fraction, the “Change from GRMD Baseline (fraction): Kallikrein-14 (KLK14)” value was -0.165 fraction and the “Change from GRMD Baseline (fraction): Kin of IRRE-like protein 3 (KIRREL3)” value was -0.0664 fraction. For the same molecule, the “Change from GRMD Baseline (fraction): Kremen protein 2 (KREMEN2)” value was -0.1517 fraction, the “Change from GRMD Baseline (fraction): Kynureninase (KYNU)” value was -0.1154 fraction and the “Change from GRMD Baseline (fraction): L-Selectin (SELL)” value was -0.2072 fraction. For the same molecule, the “Change from GRMD Baseline (fraction): L-lactate dehydrogenase B chain (LDHB)” value was -0.3998 fraction, the “Change from GRMD Baseline (fraction): Leucine-rich repeat serine/threonine-protein kinase 2 (LRRK2)” value was -0.1394 fraction and the “Change from GRMD Baseline (fraction): Leucine-rich repeat transmembrane protein FLRT1 (FLRT1)” value was -0.1359 fraction. The “Change from GRMD Baseline (fraction): Low affinity immunoglobulin epsilon Fc receptor (FCER2)” value was -0.0521 fraction, the “Change from GRMD Baseline (fraction): MAP kinase-activated protein kinase 2 (MAPKAPK2)” value was -0.3216 fraction and the “Change from GRMD Baseline (fraction): MAP kinase-activated protein kinase 3 (MAPKAPK3)” value was -0.2837 fraction. The “Change from GRMD Baseline (fraction): Macrophage scavenger receptor types I and II (MSR1)” value was -0.0382 fraction, the “Change from GRMD Baseline (fraction): Malate dehydrogenase, cytoplasmic (MDH1)” value was -0.1486 fraction and the “Change from GRMD Baseline (fraction): Methionine aminopeptidase 2 (METAP2)” value was -0.1671 fraction. The “Change from GRMD Baseline (fraction): Microtubule-associated protein tau (MAPT)” value was -0.2425 fraction, the “Change from GRMD Baseline (fraction): Mitogen-activated protein kinase 3 (MAPK3)” value was -0.2851 fraction and the “Change from GRMD Baseline (fraction): Mitogen-activated protein kinase 8 (MAPK8)” value was -0.2995 fraction. The “Change from GRMD Baseline (fraction): Mitogen-activated protein kinase 12 (MAPK12)” value was -0.3528 fraction, the “Change from GRMD Baseline (fraction): Mitogen-activated protein kinase 14 (MAPK14)” value was -0.2706 fraction and the “Change from GRMD Baseline (fraction): Mothers against decapentaplegic homolog 3 (SMAD3)” value was -0.0452 fraction. The “Change from GRMD Baseline (fraction): Myeloblastin (PRTN3)” value was 0.0617 fraction, the “Change from GRMD Baseline (fraction): Myoglobin (MB)” value was -0.422 fraction and the “Change from GRMD Baseline (fraction): Myosin-binding protein C, slow-type (MYBPC1)” value was 0.1932 fraction. The “Change from GRMD Baseline (fraction): NKG2D ligand 2 (ULBP2)” value was -0.0329 fraction, the “Change from GRMD Baseline (fraction): NSFL1 cofactor p47 (NSFL1C)” value was -0.3479 fraction and the “Change from GRMD Baseline (fraction): Natural cytotoxicity triggering receptor 3 (NCR3)” value was -0.0271 fraction. The “Change from GRMD Baseline (fraction): Neuronal cell adhesion molecule (NRCAM)” value was 0.199 fraction, the “Change from GRMD Baseline (fraction): Neutral ceramidase (ASAH2)” value was -0.1226 fraction and the “Change from GRMD Baseline (fraction): Nucleoside diphosphate kinase A (NME1)” value was -0.3054 fraction. For the same molecule, the “Change from GRMD Baseline (fraction): OCIA domain-containing protein 1 (OCIAD1)” value was -0.019 fraction, the “Change from GRMD Baseline (fraction): Oncostatin-M (OSM)” value was -0.0794 fraction and the “Change from GRMD Baseline (fraction): Opioid-binding protein/cell adhesion molecule (OPCML)” value was -0.0946 fraction. For the same molecule, the “Change from GRMD Baseline (fraction): PIK3CA/PIK3R1 (PIK3CA PIK3R1)” value was -0.2992 fraction, the “Change from GRMD Baseline (fraction): Parathyroid hormone-related protein (PTHLH)” value was -0.1165 fraction and the “Change from GRMD Baseline (fraction): Peptidyl-prolyl cis-trans isomerase E (PPIE)” value was -0.2567 fraction. For the same molecule, the “Change from GRMD Baseline (fraction): Peroxiredoxin-1 (PRDX1)” value was -0.376 fraction, the “Change from GRMD Baseline (fraction): Peroxiredoxin-6 (PRDX6)” value was -0.4044 fraction and the “Change from GRMD Baseline (fraction): Phosphatidylethanolamine-binding protein 1 (PEBP1)” value was -0.1964 fraction. For the same molecule, the “Change from GRMD Baseline (fraction): Phosphoglucomutase-1 (PGM1)” value was -0.1676 fraction, the “Change from GRMD Baseline (fraction): Phosphoglycerate mutase 1 (PGAM1)” value was 0.2377 fraction and the “Change from GRMD Baseline (fraction): Plasma serine protease inhibitor (SERPINA5)” value was -0.1552 fraction. For the same molecule, the “Change from GRMD Baseline (fraction): Platelet glycoprotein 4 (CD36)” value was -0.0717 fraction, the “Change from GRMD Baseline (fraction): Platelet-activating factor acetylhydrolase (PLA2G7)” value was -0.1993 fraction and the “Change from GRMD Baseline (fraction): Platelet-derived growth factor receptor alpha (PDGFRA)” value was -0.052 fraction. The “Change from GRMD Baseline (fraction): Proliferating cell nuclear antigen (PCNA)” value was -0.2439 fraction, the “Change from GRMD Baseline (fraction): Protein NOV homolog (NOV)” value was -0.0815 fraction and the “Change from GRMD Baseline (fraction): Protein S100-A12 (S100A12)” value was -0.0694 fraction. The “Change from GRMD Baseline (fraction): RAC-alpha/beta/gamma serine/threonine-protein kinase (AKT1 AKT2 AKT3)” value was -0.3391 fraction, the “Change from GRMD Baseline (fraction): RAC-beta serine/threonine-protein kinase (AKT2)” value was -0.2794 fraction and the “Change from GRMD Baseline (fraction): Rab GDP dissociation inhibitor beta (GDI2)” value was -0.3851 fraction. The “Change from GRMD Baseline (fraction): Receptor tyrosine-protein kinase erbB-3 (ERBB3)” value was 0.0234 fraction, the “Change from GRMD Baseline (fraction): Receptor-type tyrosine-protein kinase FLT3 (FLT3)” value was -0.1824 fraction and the “Change from GRMD Baseline (fraction): Renin (REN)” value was -0.0274 fraction. For the same molecule, the “Change from GRMD Baseline (fraction): Retinoblastoma-associated protein (RB1)” value was -0.0961 fraction, the “Change from GRMD Baseline (fraction): S-formylglutathione hydrolase (ESD)” value was -0.2877 fraction and the “Change from GRMD Baseline (fraction): Serine/threonine-protein kinase 17B (STK17B)” value was -0.0905 fraction. For the same molecule, the “Change from GRMD Baseline (fraction): Serine/threonine-protein kinase Chk2 (CHEK2)” value was 0.2279 fraction, the “Change from GRMD Baseline (fraction): Serine/threonine-protein kinase WNK3 (WNK3)” value was -0.1692 fraction and the “Change from GRMD Baseline (fraction): Serine/threonine-protein kinase receptor R3 (ACVRL1)” value was -0.0902 fraction. For the same molecule, the “Change from GRMD Baseline (fraction): Small nuclear ribonucleoprotein F (SNRPF)” value was -0.0313 fraction, the “Change from GRMD Baseline (fraction): Somatostatin-28 (SST)” value was 0.1915 fraction and the “Change from GRMD Baseline (fraction): T-lymphocyte activation antigen CD80 (CD80)” value was -0.0767 fraction. The “Change from GRMD Baseline (fraction): Thymic stromal lymphopoietin (TSLP)” value was -0.0628 fraction, the “Change from GRMD Baseline (fraction): Thyroid peroxidase (TPO)” value was -0.1126 fraction and the “Change from GRMD Baseline (fraction): Tissue factor pathway inhibitor (TFPI)” value was 0.0479 fraction. For the same molecule, the “Change from GRMD Baseline (fraction): Transcription factor AP-1 (JUN)” value was -0.1004 fraction, the “Change from GRMD Baseline (fraction): Transketolase (TKT)” value was -0.3602 fraction and the “Change from GRMD Baseline (fraction): Translationally-controlled tumor protein (TPT1)” value was -0.3694 fraction. For the same molecule, the “Change from GRMD Baseline (fraction): Triosephosphate isomerase (TPI1)” value was -0.5129 fraction, the “Change from GRMD Baseline (fraction): Tropomyosin beta chain (TPM2)” value was -0.0815 fraction and the “Change from GRMD Baseline (fraction): Troponin I, cardiac muscle (TNNI3)” value was 0.0173 fraction. For the same molecule, the “Change from GRMD Baseline (fraction): Troponin I, fast skeletal muscle (TNNI2)” value was 0.1681 fraction, the “Change from GRMD Baseline (fraction): Troponin T, cardiac muscle (TNNT2)” value was 0.0317 fraction and the “Change from GRMD Baseline (fraction): Tumor necrosis factor ligand superfamily member 11 (TNFSF11)” value was -0.1211 fraction. For the same molecule, the “Change from GRMD Baseline (fraction): Tumor necrosis factor receptor superfamily member 1B (TNFRSF1B)” value was -0.1149 fraction and the “Change from GRMD Baseline (fraction): Tumor necrosis factor receptor superfamily member 3 (LTBR)” value was -0.1112 fraction.
